Experimental data from ChEMBL document CHEMBL5653631, “A Potent and Selective ULK1 Inhibitor Suppresses Autophagy and Sensitizes Cancer Cells to Nutrient Stress” (iScience, 2018).

Columns and labels:
[1] = biological target: Serine/threonine-protein kinase WNK1 (Homo sapiens) (UniProt Q9H4A3); test: Inhibition of human recombinant Wnk1 at 500 nM in presence of ATP by radiometric assay relative to control
[2] = biological target: Casein kinase I isoform gamma-1 (Homo sapiens) (UniProt Q9HCP0); test: Inhibition of human recombinant CK1g1 at 15 nM in presence of ATP by radiometric assay relative to control
Sequence of Casein kinase I isoform gamma-1 (Homo sapiens) (Q9HCP0 whole entry, looked up, canonical isoform): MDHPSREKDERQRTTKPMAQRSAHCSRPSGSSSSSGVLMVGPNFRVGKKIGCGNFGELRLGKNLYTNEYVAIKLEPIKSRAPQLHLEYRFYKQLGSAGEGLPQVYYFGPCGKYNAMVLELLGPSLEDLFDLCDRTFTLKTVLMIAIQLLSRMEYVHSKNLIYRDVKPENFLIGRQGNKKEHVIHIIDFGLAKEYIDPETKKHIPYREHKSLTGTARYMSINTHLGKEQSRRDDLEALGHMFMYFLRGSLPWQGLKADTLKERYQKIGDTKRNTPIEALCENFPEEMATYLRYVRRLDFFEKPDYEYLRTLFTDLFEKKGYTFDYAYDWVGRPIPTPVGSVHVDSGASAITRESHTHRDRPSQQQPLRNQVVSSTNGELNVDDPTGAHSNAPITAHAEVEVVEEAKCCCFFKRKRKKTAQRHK

[3] = biological target: T1, Mitogen-activated protein kinase kinase kinase 5 (Homo sapiens) (UniProt Q99683); test: Inhibition of human recombinant MAP3K5 at 15 nM in presence of ATP by radiometric assay relative to control
T1 sequence (whole entry): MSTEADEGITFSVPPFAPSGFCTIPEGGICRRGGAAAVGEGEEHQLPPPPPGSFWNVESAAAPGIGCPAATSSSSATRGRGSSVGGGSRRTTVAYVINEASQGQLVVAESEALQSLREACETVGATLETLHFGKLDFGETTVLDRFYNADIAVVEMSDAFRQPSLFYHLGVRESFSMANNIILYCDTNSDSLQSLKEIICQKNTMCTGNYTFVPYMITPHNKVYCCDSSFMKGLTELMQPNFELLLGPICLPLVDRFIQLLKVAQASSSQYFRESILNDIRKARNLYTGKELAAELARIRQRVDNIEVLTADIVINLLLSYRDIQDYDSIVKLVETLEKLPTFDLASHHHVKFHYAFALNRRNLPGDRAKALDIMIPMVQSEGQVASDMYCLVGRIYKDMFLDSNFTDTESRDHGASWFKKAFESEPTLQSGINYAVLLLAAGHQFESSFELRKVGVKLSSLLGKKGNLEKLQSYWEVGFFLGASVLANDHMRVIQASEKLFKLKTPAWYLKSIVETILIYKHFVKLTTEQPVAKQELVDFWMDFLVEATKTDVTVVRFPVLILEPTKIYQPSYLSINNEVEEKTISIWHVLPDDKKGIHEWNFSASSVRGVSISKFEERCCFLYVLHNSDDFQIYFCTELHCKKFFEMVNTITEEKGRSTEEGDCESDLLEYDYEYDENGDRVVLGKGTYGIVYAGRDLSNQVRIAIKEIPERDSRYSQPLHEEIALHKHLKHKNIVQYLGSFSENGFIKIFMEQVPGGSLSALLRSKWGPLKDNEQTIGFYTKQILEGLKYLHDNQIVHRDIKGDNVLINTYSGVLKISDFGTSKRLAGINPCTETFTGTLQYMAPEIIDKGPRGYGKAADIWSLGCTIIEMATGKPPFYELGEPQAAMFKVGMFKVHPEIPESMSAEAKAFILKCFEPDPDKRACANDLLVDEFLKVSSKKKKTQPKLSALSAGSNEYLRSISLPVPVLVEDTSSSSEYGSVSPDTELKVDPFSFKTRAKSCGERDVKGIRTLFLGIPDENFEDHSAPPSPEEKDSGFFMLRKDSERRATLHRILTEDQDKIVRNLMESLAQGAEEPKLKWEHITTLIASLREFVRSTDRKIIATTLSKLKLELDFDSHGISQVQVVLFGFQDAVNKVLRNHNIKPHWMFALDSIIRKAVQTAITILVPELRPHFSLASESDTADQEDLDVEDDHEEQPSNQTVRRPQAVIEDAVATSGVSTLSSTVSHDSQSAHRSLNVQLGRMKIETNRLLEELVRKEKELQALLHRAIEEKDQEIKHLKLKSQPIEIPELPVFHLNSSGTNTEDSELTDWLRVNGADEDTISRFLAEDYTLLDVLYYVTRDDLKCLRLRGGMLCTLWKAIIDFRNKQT

[4] = biological target: T2, Myotonin-protein kinase (Homo sapiens) (UniProt Q09013); test: Inhibition of human recombinant DMPK1 at 15 nM related to control ULK1
T2 sequence (whole entry): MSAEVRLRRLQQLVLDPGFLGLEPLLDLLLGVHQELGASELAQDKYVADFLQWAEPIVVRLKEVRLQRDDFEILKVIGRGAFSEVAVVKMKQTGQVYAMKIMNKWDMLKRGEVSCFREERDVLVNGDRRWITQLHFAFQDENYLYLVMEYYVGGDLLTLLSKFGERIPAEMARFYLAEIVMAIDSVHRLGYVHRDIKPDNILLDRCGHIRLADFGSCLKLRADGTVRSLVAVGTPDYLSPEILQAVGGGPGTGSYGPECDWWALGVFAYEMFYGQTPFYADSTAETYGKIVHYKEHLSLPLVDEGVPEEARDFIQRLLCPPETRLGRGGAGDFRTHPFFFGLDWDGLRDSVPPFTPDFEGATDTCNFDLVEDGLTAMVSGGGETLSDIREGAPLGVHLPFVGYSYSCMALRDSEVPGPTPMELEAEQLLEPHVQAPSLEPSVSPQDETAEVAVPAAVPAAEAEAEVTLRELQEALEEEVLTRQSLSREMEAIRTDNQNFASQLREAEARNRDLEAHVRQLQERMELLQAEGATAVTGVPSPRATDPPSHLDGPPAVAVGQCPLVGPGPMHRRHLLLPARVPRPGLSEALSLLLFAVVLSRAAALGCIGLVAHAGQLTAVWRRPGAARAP

[5] = biological target: Receptor-type tyrosine-protein kinase FLT3 (Homo sapiens) (UniProt P36888); test: Inhibition of human recombinant FLT3 at 15 nM related to control ULK1
[6] = biological target: Tyrosine-protein kinase Lyn (Homo sapiens) (UniProt P07948); test: Inhibition of human recombinant LYN at 15 nM related to control ULK1
Sequence of Tyrosine-protein kinase Lyn (Homo sapiens) (P07948 2-512 limits assumed): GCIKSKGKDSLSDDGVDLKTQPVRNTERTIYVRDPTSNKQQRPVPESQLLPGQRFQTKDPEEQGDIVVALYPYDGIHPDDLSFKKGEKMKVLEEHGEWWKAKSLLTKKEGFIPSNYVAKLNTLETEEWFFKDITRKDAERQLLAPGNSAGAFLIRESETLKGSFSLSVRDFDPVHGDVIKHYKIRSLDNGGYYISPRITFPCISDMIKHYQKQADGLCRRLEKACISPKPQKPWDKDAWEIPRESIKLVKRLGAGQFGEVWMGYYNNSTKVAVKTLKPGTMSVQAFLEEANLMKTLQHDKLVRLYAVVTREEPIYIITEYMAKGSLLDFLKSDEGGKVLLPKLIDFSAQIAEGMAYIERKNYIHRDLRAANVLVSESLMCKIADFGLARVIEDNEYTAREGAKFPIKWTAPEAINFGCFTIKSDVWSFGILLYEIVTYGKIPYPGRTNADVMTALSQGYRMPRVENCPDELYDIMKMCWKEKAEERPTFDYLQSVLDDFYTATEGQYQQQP

[7] = biological target: Interferon-induced, double-stranded RNA-activated protein kinase (Homo sapiens) (UniProt P19525); test: Inhibition of human recombinant PKR at 15 nM related to control ULK1
Sequence of Interferon-induced, double-stranded RNA-activated protein kinase (Homo sapiens) (P19525 whole entry): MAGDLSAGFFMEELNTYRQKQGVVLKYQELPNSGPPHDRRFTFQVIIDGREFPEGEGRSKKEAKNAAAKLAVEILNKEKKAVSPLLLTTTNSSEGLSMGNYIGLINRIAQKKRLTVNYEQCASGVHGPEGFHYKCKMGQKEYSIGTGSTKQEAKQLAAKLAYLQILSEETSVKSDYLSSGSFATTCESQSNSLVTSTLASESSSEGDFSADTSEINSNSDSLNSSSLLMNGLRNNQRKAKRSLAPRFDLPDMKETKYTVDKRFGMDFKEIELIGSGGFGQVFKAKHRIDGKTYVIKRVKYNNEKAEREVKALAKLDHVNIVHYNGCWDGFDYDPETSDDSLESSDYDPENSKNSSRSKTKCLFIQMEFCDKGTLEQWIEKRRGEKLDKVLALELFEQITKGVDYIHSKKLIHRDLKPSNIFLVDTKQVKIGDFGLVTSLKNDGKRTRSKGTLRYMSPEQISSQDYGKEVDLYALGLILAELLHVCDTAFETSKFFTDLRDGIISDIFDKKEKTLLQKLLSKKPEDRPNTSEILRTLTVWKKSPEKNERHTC

[8] = biological target: Tau-tubulin kinase 2 (Homo sapiens) (UniProt Q6IQ55); test: Inhibition of human recombinant TTBK2 at 15 nM related to control ULK1
Sequence of Tau-tubulin kinase 2 (Homo sapiens) (Q6IQ55 whole entry): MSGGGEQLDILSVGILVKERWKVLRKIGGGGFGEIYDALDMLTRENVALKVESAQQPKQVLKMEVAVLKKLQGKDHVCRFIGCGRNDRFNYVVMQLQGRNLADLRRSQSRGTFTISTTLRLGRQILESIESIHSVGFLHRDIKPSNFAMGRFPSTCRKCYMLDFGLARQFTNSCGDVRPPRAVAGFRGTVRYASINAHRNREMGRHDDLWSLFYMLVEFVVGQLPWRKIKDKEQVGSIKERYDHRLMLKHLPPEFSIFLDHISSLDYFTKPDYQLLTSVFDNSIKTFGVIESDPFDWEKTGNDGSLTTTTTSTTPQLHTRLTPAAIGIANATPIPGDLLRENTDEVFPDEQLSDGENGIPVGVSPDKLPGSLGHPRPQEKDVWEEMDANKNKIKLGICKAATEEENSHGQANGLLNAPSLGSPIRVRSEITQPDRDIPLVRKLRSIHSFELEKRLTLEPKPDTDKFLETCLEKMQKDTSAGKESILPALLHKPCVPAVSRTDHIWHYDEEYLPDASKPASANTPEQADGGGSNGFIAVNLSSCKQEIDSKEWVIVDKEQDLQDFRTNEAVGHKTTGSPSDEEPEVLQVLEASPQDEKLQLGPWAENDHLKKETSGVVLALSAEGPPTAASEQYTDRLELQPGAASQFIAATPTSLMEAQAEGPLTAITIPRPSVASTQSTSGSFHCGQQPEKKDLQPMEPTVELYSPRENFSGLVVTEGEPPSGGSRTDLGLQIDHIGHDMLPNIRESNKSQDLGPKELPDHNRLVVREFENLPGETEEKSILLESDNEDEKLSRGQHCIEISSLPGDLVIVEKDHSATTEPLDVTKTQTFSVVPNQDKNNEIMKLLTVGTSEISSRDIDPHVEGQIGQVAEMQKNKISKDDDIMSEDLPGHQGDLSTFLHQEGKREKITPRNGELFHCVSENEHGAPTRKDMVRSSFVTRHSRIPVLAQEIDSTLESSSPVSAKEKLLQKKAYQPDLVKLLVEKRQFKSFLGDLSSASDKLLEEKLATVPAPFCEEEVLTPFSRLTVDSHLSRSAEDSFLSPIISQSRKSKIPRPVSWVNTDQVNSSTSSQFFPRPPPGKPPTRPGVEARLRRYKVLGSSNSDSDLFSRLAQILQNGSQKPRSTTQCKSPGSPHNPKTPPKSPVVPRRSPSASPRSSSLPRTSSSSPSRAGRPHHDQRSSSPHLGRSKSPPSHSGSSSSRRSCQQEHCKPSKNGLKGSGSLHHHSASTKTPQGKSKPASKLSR

[9] = biological target: Tyrosine-protein kinase Tec (Homo sapiens) (UniProt P42680); test: Inhibition of human recombinant TEC at 15 nM related to control ULK1

Sequence of Serine/threonine-protein kinase WNK1 (Homo sapiens) (Q9H4A3 whole entry, looked up, canonical isoform): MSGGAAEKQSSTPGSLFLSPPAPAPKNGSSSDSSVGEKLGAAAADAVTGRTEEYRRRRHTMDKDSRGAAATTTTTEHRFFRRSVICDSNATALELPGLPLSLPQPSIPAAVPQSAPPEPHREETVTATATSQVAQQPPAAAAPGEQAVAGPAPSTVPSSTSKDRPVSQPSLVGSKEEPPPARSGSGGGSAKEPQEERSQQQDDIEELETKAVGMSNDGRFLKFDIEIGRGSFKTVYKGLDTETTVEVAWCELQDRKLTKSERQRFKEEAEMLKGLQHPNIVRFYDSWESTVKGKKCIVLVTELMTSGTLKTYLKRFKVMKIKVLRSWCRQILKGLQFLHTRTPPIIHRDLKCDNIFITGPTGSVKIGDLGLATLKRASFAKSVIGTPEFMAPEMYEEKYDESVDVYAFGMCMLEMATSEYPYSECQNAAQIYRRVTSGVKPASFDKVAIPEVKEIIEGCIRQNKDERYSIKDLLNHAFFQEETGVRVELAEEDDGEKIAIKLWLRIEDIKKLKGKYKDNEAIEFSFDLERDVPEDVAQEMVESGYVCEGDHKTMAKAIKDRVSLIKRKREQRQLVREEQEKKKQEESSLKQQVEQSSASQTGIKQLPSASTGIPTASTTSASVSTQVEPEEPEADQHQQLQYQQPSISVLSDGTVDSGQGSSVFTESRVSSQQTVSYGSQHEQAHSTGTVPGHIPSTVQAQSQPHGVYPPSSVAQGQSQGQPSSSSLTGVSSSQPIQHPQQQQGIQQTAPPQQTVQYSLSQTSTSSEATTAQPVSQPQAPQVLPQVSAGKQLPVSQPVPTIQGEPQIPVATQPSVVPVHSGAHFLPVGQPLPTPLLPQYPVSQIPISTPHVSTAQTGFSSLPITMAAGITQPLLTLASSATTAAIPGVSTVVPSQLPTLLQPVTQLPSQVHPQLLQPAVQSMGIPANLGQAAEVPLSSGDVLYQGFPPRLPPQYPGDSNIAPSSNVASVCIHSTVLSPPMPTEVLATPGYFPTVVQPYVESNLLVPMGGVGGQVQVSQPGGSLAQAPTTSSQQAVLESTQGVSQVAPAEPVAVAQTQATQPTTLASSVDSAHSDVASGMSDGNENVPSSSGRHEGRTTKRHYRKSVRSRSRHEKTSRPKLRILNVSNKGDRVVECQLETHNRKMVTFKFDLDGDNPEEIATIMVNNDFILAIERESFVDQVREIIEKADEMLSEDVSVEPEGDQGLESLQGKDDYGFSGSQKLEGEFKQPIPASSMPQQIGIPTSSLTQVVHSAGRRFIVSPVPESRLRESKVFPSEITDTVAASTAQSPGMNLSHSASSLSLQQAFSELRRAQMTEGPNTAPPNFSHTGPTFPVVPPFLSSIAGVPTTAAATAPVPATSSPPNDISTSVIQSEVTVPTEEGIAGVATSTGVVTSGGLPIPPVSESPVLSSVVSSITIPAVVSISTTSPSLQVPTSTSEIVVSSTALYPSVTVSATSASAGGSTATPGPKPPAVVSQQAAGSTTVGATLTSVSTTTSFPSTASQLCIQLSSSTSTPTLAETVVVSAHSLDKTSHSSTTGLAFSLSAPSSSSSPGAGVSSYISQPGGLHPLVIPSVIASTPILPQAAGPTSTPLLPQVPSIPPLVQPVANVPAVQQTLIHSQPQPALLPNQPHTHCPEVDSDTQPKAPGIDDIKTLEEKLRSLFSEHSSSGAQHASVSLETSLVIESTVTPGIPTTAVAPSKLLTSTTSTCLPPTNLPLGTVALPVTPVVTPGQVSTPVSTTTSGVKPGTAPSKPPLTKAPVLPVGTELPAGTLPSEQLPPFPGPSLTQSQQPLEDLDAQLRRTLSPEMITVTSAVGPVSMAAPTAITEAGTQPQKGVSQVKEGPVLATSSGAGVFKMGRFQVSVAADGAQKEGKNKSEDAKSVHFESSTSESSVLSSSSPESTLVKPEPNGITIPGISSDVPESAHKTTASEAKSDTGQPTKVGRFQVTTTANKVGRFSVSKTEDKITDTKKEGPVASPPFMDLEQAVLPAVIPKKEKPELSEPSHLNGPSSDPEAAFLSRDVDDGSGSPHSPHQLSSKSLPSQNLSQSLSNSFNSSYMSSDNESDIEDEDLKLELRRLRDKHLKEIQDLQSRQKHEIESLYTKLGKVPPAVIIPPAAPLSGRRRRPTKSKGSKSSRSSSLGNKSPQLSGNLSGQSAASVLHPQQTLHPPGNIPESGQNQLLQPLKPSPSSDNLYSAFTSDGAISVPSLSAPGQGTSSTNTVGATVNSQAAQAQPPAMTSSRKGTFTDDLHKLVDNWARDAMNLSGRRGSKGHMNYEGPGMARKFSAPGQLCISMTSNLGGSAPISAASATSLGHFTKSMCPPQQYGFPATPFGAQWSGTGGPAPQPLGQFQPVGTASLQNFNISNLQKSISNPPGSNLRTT

Row | Structure (SMILES) | inhibition [1] [%] | inhibition [2] [%] | inhibition [3] [%] | fold change (FC) [4] | fold change (FC) [5] | fold change (FC) [6] | fold change (FC) [7] | fold change (FC) [8] | fold change (FC) [9]
1 | CNC(=O)c1ccccc1Oc1nc(Nc2cc(OC)c(OC)c(OC)c2)ncc1Br | 0 | – | – | – | – | – | – | – | –
2 | CC(C)[C@H](NC(=O)c1cc(-c2cnn3cc(-c4ccc(OCCN5CCCCC5)cc4)cnc23)cs1)C(F)(F)F | – | 0 | 0 | 0 | 0.77 | 0.22 | 0.02 | 0 | 0
